# Residues, ends and D or L forms follow the SMILES beside them. *: point of attachment. Cbz = O=C(OCc1ccccc1)*; NHPh = c1ccc(N*)cc1; OtBu = CC(C)(C)O*
# Biological target: T1, FGF13 (Homo sapiens, UniProt Q92913)
# T1 construct: Full-length FGF13-1b (aa 1-192) was subcloned into appropriate plasmids; made in house; host or cells: E. coli BL21 (DE3) pLys
# T1 sequence (Q92913 1-192 isoform Q92913-2): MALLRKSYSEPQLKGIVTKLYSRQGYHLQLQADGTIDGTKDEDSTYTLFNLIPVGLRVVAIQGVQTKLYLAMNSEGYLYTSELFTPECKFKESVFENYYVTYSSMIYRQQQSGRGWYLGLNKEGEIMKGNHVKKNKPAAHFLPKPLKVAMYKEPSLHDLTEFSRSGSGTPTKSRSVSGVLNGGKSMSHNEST
# Assay: Surface plasmon resonance (SPR), compound binding to FGF13
# Conditions: for Kd: SPR
# Description: page 6: Split-luciferase Complementation Assay (LCA) Twenty-four hours post transfection, cells were trypsinized using TrypLE (Gibco; cat # 12604013), centrifuged […] plates (Greiner Bio -One; cat # 655073 ) at ~0.8 x 10^5 cells per well in 200 μl of medium. The cells were incubated for another 24 hours, and then the growth medium was replaced with 100 μl serum -free, phenol red -free DMEM/F-12 medium (Invitrogen). All compounds from the PW - and the ZL-series, including PW164 and […] medium and then cells were incubated for two hours. The bioluminescence reaction was initiated by injection of 100 μl of D -luciferin substrate (1.5 mg/ml dissolved in PBS) using a Synergy H4 multimode microplate reader (BioTek). Luminescence readings were initiated after 3 s of mild plate shaking and performed at 2 min intervals […] °C. Raw signal intensity was computed by averaging peak luminescence plus two adjacent time points. Normalized signal intensity was expressed as the percentage of mean signal intensity relative to per plate control […] Surface plasmon resonance (SPR) All SPR experiments were performed on a Biacore T100 (GE Healthcare). […] ([…]) , which was previously described (14) or purified FGF13 were immobilized on CM5 sensor chip using 10 mM sodium acetate buffer (pH 5.5) with Amine Coupling Kit (GE […] to the control channel of the chip. For each compound, stock solution (50 mM) was serially diluted from 300 to 1 […] Samples were injected over the chip for 60 s followed by […] page 7: […] The nonspecific responses (buffer alone) were extracted for injected compound or peptide from experimental sensograms before data analysis. Data was analyzed for kinetic properties using Biacore T100 Analysis software. Visually inspected sensograms/traces were used to calculate the equilibrium constant (KD): i. the maximal responses were plotted against the treated concentrations, and the steady state KD was calculated from the fitted saturation binding curve; ii. a kinetic analysis for all ligand/analyte interaction was obtained by using Langmuir 1:1 interaction fitting model (KD = koff/kon). RNA isolation from DRG Mouse surgical and experimental procedures employed were approved by the University of Texas Medical Branch Institutional Animal Care and Use Committee. Animals were sacrificed using carbon dioxide before confirmation of death, rather than cervical dislocation. Mouse lumbar dorsal root ganglia (L4 and L5) were dissected and collected in Buffer RLT Plus (RNeasy Plus Mini Kit, QIAGEN, cat. nos. 74136). RNA was isolated according to the protocol reported in the same kit. Quantitative reverse transcriptase PCR (qRT-PCR) RNA samples for real-time analysis were then quantified using a Nanodrop Spectrophotometer (Thermo Scientific). cDNA was generated from total RNA (1 μg) in a 20 μl reaction using the reagents of iScriptTM Reverse Transcription Supermix for RT-qPCR (Bio-Rad Laboratories, cat. 1708840). FGF13 gene expression was determined by qRT-PCR. qRT-PCR was performed in duplicate for each sample using 4 μl of cDNA in a total volume of 20 μl using the iTaq Universal SYBR Green Supermix (Bio-Rad, Hercules, CA, United States). All RT-PCR assays were run using the BioRad CFX384 Touch Real-Time PCR System (Bio-Rad, Hercules, CA, United States) with the following conditions: 95°[…]) repeated by 40 cycles and 4°C. […] The internal reference gene for SYBR Green assays was 18[NT] and 5'-CTC
Structure (SMILES),Kd [µM],"Figure 1C Right panel, Mean response versus concentration (concentration 3.12e-6)","Figure 1C Right panel, Mean response versus concentration (concentration 6.25e-6)","Figure 1C Right panel, Mean response versus concentration (concentration 1.25e-5)","Figure 1C Right panel, Mean response versus concentration (concentration 2.5e-5)","Figure 1C Right panel, Mean response versus concentration (concentration 5e-5)","Figure 1C Right panel, Mean response versus concentration (concentration 7.5e-5)","Figure 1C Right panel, Mean response versus concentration (concentration 0.0001)","Figure 1C Right panel, Mean response versus concentration (concentration 0.00015)","Figure 1C Right panel, Mean response versus concentration (concentration 0.0002)","Figure 1C Right panel, Mean response versus concentration (concentration 0.0003)","Figure 1C Right panel, Mean response versus concentration (concentration 7.80E-07)"
CC(=O)N[C@@H](Cc1ccccc1)C(=O)N[C@@H](CC(C)C)C(=O)N1CCC[C@H]1C(=O)N[C@@H](CCCCN)C(=O)Nc1ccccc1 [ZL192] (Ac-FLPK-NHPh),4,10.5172,11.7391,12.5757,14.2936,15.3045,16.2485,18.1479,20.366,22.3345,22.6291,7.018
COC(=O)[C@@H](NC(=O)[C@H](CCC(=O)OC(C)(C)C)NC(=O)[C@H](CC(C)C)NC(=O)[C@@H]1CCCN1C(=O)OCc1ccccc1)C(C)C [PW164] (Cbz-PLE(OtBu)V-OMe),21 ± 3,,,,,,,,,,,
